In patent publication US7238710B2, “EP4 receptor agonist, compositions and methods thereof” (Merck Frosst Canada, Ltd., priority 2003, dated 2007):
“Also recorded” adds a separate entry of the source.

Experiments:
[1] = tested on: ROS 17/2.8 rat osteosarcoma cells; test: Intracellular cAMP in ROS 17/2.8 cells; format: cell-based
Protocol: (§1) RCT-1 and RCT-3 are clonal cell lines immortalized by SV-40 large T antigen from cells released from fetal rat calvair by a cmbination collagenase/hyaluronidase digestion. RCT-1 cells, derived from cells released during the first 10 minutes of digestion (fraction I), are cultured in RPMI 1640 medium (BRL) with 10% fetal bovine serum and 0.4 mg/ml G418 (BRL). These cells differentiate and express osteoblastic features upon retinoic acid treatment. RCT-3 cells, immortalized from osteoblast-enriched fraction III cells, are cultured in F-12 medium (BRL) with 5% Fetal bovine serum and 0.4 mg/ml G418. TRAB-11 cells are also immortalized by SV40 large T antigen from adult rat tibia and are cultured in RPMI 1640 medium with 10% FBS and 0.4 mg/ml G418. ROS 17/2.8 rat osteosarcoma cells are cultured in F-12 containing 5% FBS. Osteoblast-enriched (fraction III) primary fetal rat calvaria cells are obtained by collagenase/hyaluronidase digestion of calvariae of 19 day-old rat fetuses. See Rodan et al., Growth stimulation of rat calvaria osteoblastic cells by acidic FGF, Endocrinology, 121, 1919-1923 (1987), which is incorporated by reference herein in its entirety. Cells are released during 30-50 minutes digestion (fraction III) and are cultured in F-12 medium containing 5% FBS. […]

RCT-3 cells [2] = test: Intracellular cAMP in RCT-3 cells; format: cell-based, rat
Protocol: as §1

TRAB-11 cells = test: Intracellular cAMP in TRAB-11 cells; format: cell-based, rat
Protocol: as §1

RP-1 periosteal cells = test: EP4 and EP2 mRNA expression (Northern blot) in RP-1 periosteal cells; format: cell-based, rat; conditions: RP-1 cells
Protocol: RP-1 periosteal cells are spontaneously immortalized from primary cultures of periosteal cells from tibae of 4-week old Sprague-Dawley rats and are cultured in DMEM (BRL, Gaithersburg, Md.) with 10% fetal bovine serum (JRH Biosciences, Lenexa, Kans.).
(§2) Total RNA is extracted from the tibial metaphysis or diaphysis and calvaria using a guanidinium isothiocyanate-phenol-chloroform method after pulverizing frozen bone samples by a tissue homogenizer. See P. Chomczynski et al., Single-step method of RNA isolation by acid guanidium thiocyanate-phenol-chloroform extraction., Analyt Biochem, 162, 156-159 (1987), which is incorporated by reference herein in its entirety. RNA samples ([…]) are separated on 0.9% agarose/formaldehyde gels and transferred onto nylon membranes (Boehringer Mannheim, Germany). Membranes are prehybridized in Hybrisol I (Oncor, Gaithersburg, Md.) and 0.5 mg/ml sonicated salmon sperm DNA (Boehringer) at 42° C. for 3 hours and are hybridized at 42° C. with rat EP2 and mouse EP4 cDNA probes labeled with [^32P]dCTP (Amersham, Buckinghamshire, UK) by random priming using the rediprime kit (Amersham). After hybridization, membranes are washed 4 times in 2×SSC+0.1% SDS at room temperature for a total of 1 hour and once with 0.2×SSC+0.1% SDS at 55° C. for 1 hour and then exposed to Kodak XAR 2 film at −70° C. using intensifying screens. After developing the films, bound probes are removed twice with 0.1% SDS at 80° C. and membranes are hybridized with a human GAPDH (Glyceraldehyde 3-Phosphate Dehydrogenase) cDNA probe (purchased from Clontech, Palo Alto, Calif.) for loading control.
PGE2 enhances its own production via upregulation of cyclooxygenase 2 expression in osteoblasts and in bone tissue thus autoamplifying its own effects. PGE2 also increases the levels of EP4 mRNA. RP-1 cells are immortalized from a primary culture of adult rat tibia periosteum is examined. These cells express osteoblast phenotypic markers upon confluence and form mineralized bone matrix when implanted in nude mice. […]

RCT-3 cells [3] = test: EP4 mRNA expression (Northern blot) in RCT-3 cells; format: cell-based, rat
Protocol: as §1

[4] = tested on: bone tissue (tibia, calvaria); test: EP4 and EP2 mRNA levels in vivo in bone tissue (Northern blot); parameters: species or system rat
Protocol: (§3) For mRNA localization experiments, 5-week old Sprague-Dawley rats (Charles River) are euthanized by CO2, their tibiae and calvariae are excised, cleaned of soft tissues and frozen immediately in liquid nitrogen. For EP4 regulation experiments, 6-week old rats are given a single injection of either vehicle (7% ethanol in sterile water) or an anabolic dose of PGE2 (Cayman Chemical, Ann Arbor, Mich.), 3-6 mg/kg in the same vehicle) intraperitoneally. Animals are euthanized at several time points post-injection and their tibiae and calvariae, as well as samples from lung and kidney tissues are frozen in liquid nitrogen.
as §2, with “control. […]” for “control.”

bone marrow cells = test: In situ hybridization of EP4 mRNA in bone tissue; format: in vivo, rat; conditions: rats, single anabolic dose
Protocol: as §3
Frozen tibiae are sectioned coronally at […] thickness and sections are mounted on charged slides (Probe On Plus, Fisher Scientific, Springfield, N.J.) and are kept at −70° C. until hybridization. cRNA probes are labeled with ^35S-UTPgS (ICN, Costa Mesa, Calif.) using a Riboprobe II kit (Promega Madison, Wis.). Hybridization is performed overnight at 50° C. […]
In situ hybridization is used in order to localize cells expressing EP4 in bone. In control experiment (vehicle-injected) rats, low expression of EP4 is detected in bone marrow cells. […]

[5] = five-week-old male rats, injected 3-6 mg/Kg

## CCCCC[C@H](O)/C=C/[C@H]1[C@H](O)CC(=O)[C@@H]1C/C=C\CCCC(=O)O [PGE2]
[1]
  effect on intracellular cAMP: no effect
RCT-3 cells [2]
  effect on intracellular cAMP: markedly induced
TRAB-11 cells
  effect on intracellular cAMP: markedly induced
RP-1 periosteal cells
  EP2 mRNA: not expressed; also recorded: does not induce
RP-1 periosteal cells; 10^-6 M
  EP4 mRNA levels: rapidly increases
  time of peak EP4 mRNA levels after treatment: 2 h
RCT-3 cells [3]
  EP4 mRNA levels: no effect
[4]; [5]
  EP4 mRNA levels in the tibial diaphysis: rapidly increased
  time of peak EP4 mRNA levels in the tibial diaphysis after injection: 2 h
[4]; rats
  EP2 mRNA in bone tissue: does not induce
Bone marrow cells
  expression of EP4 in bone marrow cells: increased
